Source: patent US8697692B2, “Pyrrolo [3,2-c] pyridine-4-one 2-indolinone protein kinase inhibitors” (Shanghai Hengrui Pharmaceutical Co., Ltd., priority 2006, dated 2014)

What was measured:
EGFR kinase = molecular target: T1, EGFR kinase (Homo sapiens, UniProt P00533); assay: EGFR Kinase Assay; type: biochemical; conditions: 20 μM ATP, 25° C. 45 minutes
T1 construct: purchased Cell signaling technology #7908
Description: EGFR kinase activity in vitro was measured as described below:
a. Wash Buffer (PBS-T Buffer): 1×PBS (137 mM NaCl, 2.7 mM KCl, 4.3 mM Na2HPO4, 1.4 mM KH2PO4, adjust the pH to 7.2) and 0.05% Tween-20.
(§1) b. 1% Bovine Serum Albumin (BSA, Calbiochem #136593) in PBS-T.
c. Stop Buffer: 50 mM EDTA, pH 8.0
d. DELFIA® Europium-labeled Anti-mouse IgG (PerkinElmer Life Sciences #AD0124)
e. DELFIA® Enhancement Solution (PerkinElmer Life Sciences #1244-105)
f. DELFIA® Streptavidin coated, 96-well, yellow plate (PerkinElmer Life Sciences #AAAND-0005)
g. EGFR kinase (supplied in 50 mM Tris-HCl (pH 8.0), 100 mM NaCl, 5 mM DTT, 15 mM reduced glutathione and 20% glycerol. Cell signaling technology #7908).
(§2) h. 10 mM ATP solution (Cell signaling technology #9804).
i. PTP1B (Tyr66) Biotinylated Peptide (Cell signaling technology #1325).
(§3) j. Phospho-Tyrosine Mouse mAb (P-Tyr-100) (Cell signaling technology #9411).
(§4) k. HTScan™ Tyrosine Kinase Buffer (4×)
(§5) (Cell signaling technology #9805).
(§6) l. 1.25 M DTT (1000×) (Cell signaling technology).
(§7) The following protocol was used:
1. Dilute test compound with DMSO to the desired final assay concentration.
2. Dilute 6 μM substrate peptide (Tyr66) 1:1 with dH2O, add 15 μl to every assay.
3. Immediately transfer EGFR enzyme from −80° C. to ice. Allow enzyme to thaw on ice.
4. Take 3 μg EGFR enzyme to the enzyme tube.
(§8) 5. Add 10 μl of DTT (1.25 M) to 2.5 ml of 4×HTScan™ Tyrosine Kinase Buffer (240 mM HEPES pH 7.5, 20 mM MgCl2, 20 mM MnCl2, 12 μM Na3VO4) to make DTT/Kinase buffer.
(§9) 6. Transfer 0.75 ml of DTT/Kinase buffer to each enzyme tube to make 4× reaction cocktail. Add 7.5 μl 4× reaction cocktail to every assay.
7. Add 4 μl ATP (10 mM) to 496 μl dH2O, take 7.5 μl for every assay.
Final Assay Conditions for a 30 μl Reaction
(§10) Incubate reaction tube at 25° C. for 45 minutes. 9. Add 30 μl/assay stop buffer (50 mM EDTA, pH 8.0) to stop the reaction. 10. Transfer 25 μl of each reaction and 75 μl dH2O/well to a 96-well streptavidin coated plate and incubate, with shaking at room temperature for 60 minutes. 11. Wash three times with 200 μl/well PBS-T buffer. Pat plate on paper towel to remove excess liquid. 12. Dilute primary antibody, Phospho-Tyrosine mAb (P-Tyr-100), 1:1000 in PBS-T buffer with 1% BSA. Add 100 μl diluted primary antibody to each well. 13. Incubate, with shaking at room temperature for 60 minutes. 14. Wash as described above in step 11. 15. Dilute Europium labeled anti-mouse IgG 1:500 in PBS-T buffer with 1% BSA. Add 100 μl diluted antibody to each well. 16. Incubate, with shaking at room temperature for 30 minutes. 17. Wash five times with 200 μl/well PBS-T buffer. Pat plate on paper towel to remove excess liquid. 18. Add 100 μl/well DELFIA® Enhancement Solution. 19. Incubate, with shaking at room temperature for 5 minutes. 20. Detect 615 nm fluorescence emission with appropriate Time-Resolved Plate Reader.
(§11) Calculate the inhibition rate: IR (%)=100−100*(X−B)/(N−B)
(§12) X=the fluorescence value of the well contained test compound
(§13) The IC50 value can be derived from the IRs of compounds at different concentration gradients.

HER-2/ErbB2 kinase = molecular target: T2, HER-2/ErbB2 kinase (Homo sapiens, UniProt P04626); assay: HER-2 Kinase Assay (ELISA); type: biochemical; conditions: 20 μM ATP, 25° C. 60 minutes
T2 construct: purchased Invitrogen corporation #PV3366
Description: An enzyme linked immunosorbent assays (ELISA) was conducted to measure the kinase activity of HER-2 in vitro.
a. Wash Buffer (PBS-T Buffer): 1×PBS (137 mM NaCl; 2.7 mM KCl, 4.3 mM Na2HPO4, 1.4 mM KH2PO4, adjust the pH to 7.2) and 0.05% Tween-20.
as §1
c. Stop Buffer: 50 mM EDTA, pH 8.0.
d. DELFIA® Europium-labeled Anti-mouse IgG (PerkinElmer Life Sciences #AD0124).
e. DELFIA® Enhancement Solution (PerkinElmer Life Sciences #1244-105).
f. DELFIA® Streptavidin coated, 96-well, yellow plate (PerkinElmer Life Sciences #AAAND-0005).
g. HER-2/ErbB2 kinase (Invitrogen corporation #PV3366).
as §2
i. FLT3 (Tyr589) Biotinylated Peptide (Cell signaling technology #1305).
as §3, §4, §5, §6, §7
1. Dilute test compound with DMSO to the desired final assay concentration. Add 1 μl test compound for every assay, to the negative control.
2. Dilute 6 μM substrate peptide (Tyr589) 1:1 with dH2O, add 15 μl to every assay.
3. Immediately transfer HER-2 enzyme from −80° C. to ice. Allow enzyme to thaw on ice.
4. Take 4.5 μg HER-2 enzyme to the enzyme tube.
as §8, §9
7. Add 4 μl ATP (10 mM) to 496 μl dH2O, take 7.5 μl for every assay. Final Assay Conditions for a 30 μl Reaction
as §10, with “60” for “45”
as §11, §12, §13

T2 sequence (P04626 23-1255): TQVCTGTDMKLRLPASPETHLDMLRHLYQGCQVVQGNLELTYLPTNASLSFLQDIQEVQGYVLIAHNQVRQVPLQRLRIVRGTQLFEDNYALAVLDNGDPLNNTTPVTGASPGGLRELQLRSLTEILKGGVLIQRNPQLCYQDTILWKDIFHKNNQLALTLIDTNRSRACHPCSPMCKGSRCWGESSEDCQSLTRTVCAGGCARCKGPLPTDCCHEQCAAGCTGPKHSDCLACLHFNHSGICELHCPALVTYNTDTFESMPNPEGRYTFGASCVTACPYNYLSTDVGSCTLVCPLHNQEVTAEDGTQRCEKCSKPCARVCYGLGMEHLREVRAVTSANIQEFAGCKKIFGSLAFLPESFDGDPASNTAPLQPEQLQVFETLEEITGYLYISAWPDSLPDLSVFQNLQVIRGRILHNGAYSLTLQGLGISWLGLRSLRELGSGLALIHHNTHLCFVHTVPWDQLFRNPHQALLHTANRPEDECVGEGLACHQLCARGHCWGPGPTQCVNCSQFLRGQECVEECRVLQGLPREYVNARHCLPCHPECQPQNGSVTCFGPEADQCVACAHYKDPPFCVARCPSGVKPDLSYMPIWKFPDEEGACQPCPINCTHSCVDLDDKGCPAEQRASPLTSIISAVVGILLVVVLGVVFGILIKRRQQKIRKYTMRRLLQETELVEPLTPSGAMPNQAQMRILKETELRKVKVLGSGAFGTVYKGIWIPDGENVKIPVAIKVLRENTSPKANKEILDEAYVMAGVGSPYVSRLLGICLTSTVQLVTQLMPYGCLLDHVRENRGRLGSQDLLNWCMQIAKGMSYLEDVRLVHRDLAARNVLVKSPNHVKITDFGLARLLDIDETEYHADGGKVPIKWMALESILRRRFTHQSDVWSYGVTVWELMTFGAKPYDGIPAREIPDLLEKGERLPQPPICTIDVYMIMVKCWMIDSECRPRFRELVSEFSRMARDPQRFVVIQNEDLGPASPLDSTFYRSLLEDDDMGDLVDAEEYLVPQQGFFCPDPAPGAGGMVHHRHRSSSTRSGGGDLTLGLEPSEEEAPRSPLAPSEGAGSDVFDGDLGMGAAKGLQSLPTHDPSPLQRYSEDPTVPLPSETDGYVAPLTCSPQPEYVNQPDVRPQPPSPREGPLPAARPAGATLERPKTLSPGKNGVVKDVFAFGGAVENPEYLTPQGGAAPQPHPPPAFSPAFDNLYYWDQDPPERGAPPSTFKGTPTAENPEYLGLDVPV
T1 sequence (P00533 25-1210): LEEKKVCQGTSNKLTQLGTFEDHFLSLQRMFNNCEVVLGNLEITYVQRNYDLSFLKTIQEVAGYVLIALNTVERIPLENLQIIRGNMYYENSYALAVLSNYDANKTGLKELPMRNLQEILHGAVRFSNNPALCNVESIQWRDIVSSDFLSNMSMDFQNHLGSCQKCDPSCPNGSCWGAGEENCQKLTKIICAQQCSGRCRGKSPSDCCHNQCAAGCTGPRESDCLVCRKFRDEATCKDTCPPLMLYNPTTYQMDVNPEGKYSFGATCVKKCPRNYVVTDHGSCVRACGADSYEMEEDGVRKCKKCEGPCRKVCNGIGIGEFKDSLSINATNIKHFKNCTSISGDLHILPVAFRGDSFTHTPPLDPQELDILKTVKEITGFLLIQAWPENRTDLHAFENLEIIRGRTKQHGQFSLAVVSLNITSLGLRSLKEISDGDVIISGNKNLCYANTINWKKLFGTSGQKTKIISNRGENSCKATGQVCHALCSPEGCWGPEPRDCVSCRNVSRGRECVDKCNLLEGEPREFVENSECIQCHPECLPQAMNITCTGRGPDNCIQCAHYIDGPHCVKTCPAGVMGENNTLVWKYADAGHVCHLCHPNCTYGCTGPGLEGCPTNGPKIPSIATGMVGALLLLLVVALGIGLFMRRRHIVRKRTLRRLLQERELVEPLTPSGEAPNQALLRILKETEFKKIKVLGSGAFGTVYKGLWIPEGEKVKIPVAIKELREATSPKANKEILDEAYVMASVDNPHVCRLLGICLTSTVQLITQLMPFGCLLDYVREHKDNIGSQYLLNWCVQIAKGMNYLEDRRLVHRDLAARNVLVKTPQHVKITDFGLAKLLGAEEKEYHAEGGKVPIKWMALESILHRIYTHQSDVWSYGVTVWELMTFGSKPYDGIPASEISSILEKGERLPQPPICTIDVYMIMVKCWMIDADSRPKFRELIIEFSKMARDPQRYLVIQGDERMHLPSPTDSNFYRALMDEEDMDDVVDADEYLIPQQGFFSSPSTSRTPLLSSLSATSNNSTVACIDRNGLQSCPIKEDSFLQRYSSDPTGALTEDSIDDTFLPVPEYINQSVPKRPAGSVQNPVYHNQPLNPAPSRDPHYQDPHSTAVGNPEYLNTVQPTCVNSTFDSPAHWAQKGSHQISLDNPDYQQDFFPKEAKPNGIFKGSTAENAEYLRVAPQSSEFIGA

Row | IC50 (EGFR kinase) | IC50 (HER-2/ErbB2 kinase) | Structure (SMILES)
1 | 4950 nM | – | CCN(CC)CCN1CCc2[nH]c(/C=C3\C(=O)Nc4cccc(Br)c43)c(C)c2C1=O [Example 30, 2-(4-Bromo-2-oxo-1,2-dihydro-indol-3-ylidenemethyl)-5-(2-diethylamino-ethyl)-3-methyl-1,5,6,7-tetrahydro-pyrrolo[3,2-c]pyridin-4-one]
2 | 340 nM | 270 nM | CCN(CC)CCN1CCc2[nH]c(/C=C3\C(=O)Nc4cccc(-c5cccc(F)c5F)c43)c(C)c2C1=O [Example 39, 5-(2-diethylamino-ethyl)-2-[4-(2,3-difluoro-phenyl)-2-oxo-1,2-dihydro-indol-3-ylidenemethyl]-3-methyl-1,5,6,7-tetrahydro-pyrrolo[3,2-c]pyridin-4-one]
3 | 510 nM | – | Cc1c(/C=C2\C(=O)Nc3ncc(Br)cc32)[nH]c2c1C(=O)N(CCN1CCOCC1)CC2 [Example 50, 2-(5-Bromo-2-oxo-1,2-dihydro-pyrrolo[2,3-b]pyridin-3-ylidenemethyl)-3-methyl-5-(2-morpholin-4-yl-ethyl)-1,5,6,7-tetrahydro-pyrrolo[3,2-c]pyridin-4-one]
4 | – | 41100 nM | Cc1c(/C=C2\C(=O)Nc3cccc(CCO)c32)[nH]c2c1C(=O)N(CCN1CCOCC1)CC2 [Example 42, 2-[4-(2-Hydroxy-ethyl)-2-oxo-1,2-dihydro-indol-3-ylidenemethyl]-3-methyl-5-(2-morpholin-4-yl-ethyl)-1,5,6,7-tetrahydro-pyrrolo[3,2-c]pyridin-4-one]
5 | – | 8320 nM | Cc1c(/C=C2\C(=O)Nc3cccc(C4CCNCC4)c32)[nH]c2c1C(=O)N(CCN1CCOCC1)CC2 [Example 52, 3-Methyl-5-(2-morpholin-4-yl-ethyl)-2-(2-oxo-4-piperidin-4-yl-1,2-dihydro-indol-3-ylidenemethyl)-1,5,6,7-tetrahydro-pyrrolo[3,2-c]pyridin-4-one]
6 | 760 nM | – | Cc1c(/C=C2\C(=O)Nc3ccc(Br)cc32)[nH]c2c1C(=O)N(CCN1CCCC1)CC2 [Example 40, 2-(5-Bromo-2-oxo-1,2-dihydro-indol-3-ylidenemethyl)-3-methyl-5-(2-pyrrolidin-1-yl-ethyl)-1,5,6,7-tetrahydro-pyrrolo[3,2-c]pyridin-4-one]
7 | – | 720 nM | Cc1c(/C=C2\C(=O)Nc3cccc(-c4cccc(F)c4F)c32)[nH]c2c1C(=O)N(CCN1CCCC1)CC2 [Example 59, 2-[4-(2,3-Difluoro-phenyl)-2-oxo-1,2-dihydro-indol-3-ylidenemethyl]-3-methyl-5-(2-pyrrolidin-1-yl-ethyl)-1,5,6,7-tetrahydro-pyrrolo[3,2-c]pyridin-4-one]
8 | 940 nM | – | CCN(CC)CCN1CCc2[nH]c(/C=C3\C(=O)Nc4cccc(-c5ccc(Cl)cc5F)c43)c(C)c2C1=O [Example 34, 2-[4-(4-Chloro-2-fluoro-phenyl)-2-oxo-1,2-dihydro-indol-3-ylidenemethyl]-5-(2-diethylamino-ethyl)-3-methyl-1,5,6,7-tetrahydro-pyrrolo[3,2-c]pyridin-4-one]
9 | 210 nM | 980 nM | CCN(CC)CCN1CCc2[nH]c(/C=C3\C(=O)Nc4cccc(C5CCNCC5)c43)c(C)c2C1=O [Example 31, 5-(2-Diethylamino-ethyl)-3-methyl-2-(2-oxo-4-piperidin-4-yl-1,2-dihydro-indol-3-ylidenemethyl)-1,5,6,7-tetrahydro-pyrrolo[3,2-c]pyridin-4-one]
10 | 3320 nM | – | CCN(CC)CCN1CCc2[nH]c(/C=C3\C(=O)Nc4ccc(OC)cc43)c(C)c2C1=O [Example 35, 5-(2-Diethylamino-ethyl)-2-(5-methoxy-2-oxo-1,2-dihydro-indol-3-ylidenemethyl)-3-methyl-1,5,6,7-tetrahydro-pyrrolo[3,2-c]pyridin-4-one]
11 | 2890 nM | – | CCN(CC)CCN1CCc2[nH]c(/C=C3\C(=O)Nc4cccc(CCO)c43)c(C)c2C1=O [Example 37, 5-(2-Diethylamino-ethyl)-2-[4-(2-hydroxy-ethyl)-2-oxo-1,2-dihydro-indol-3-ylidenemethyl]-3-methyl-1,5,6,7-tetrahydro-pyrrolo[3,2-c]pyridin-4-one]
12 | 180 nM | – | CCN(CC)CCN1CCc2[nH]c(/C=C3\C(=O)Nc4cccc(-c5cccc(Cl)c5F)c43)c(C)c2C1=O [Example 36, 2-[4-(3-Chloro-2-fluoro-phenyl)-2-oxo-1,2-dihydro-indol-3-ylidenemethyl]-5-(2-diethylamino-ethyl)-3-methyl-1,5,6,7-tetrahydro-pyrrolo[3,2-c]pyridin-4-one]
13 | 60 nM | 90 nM | CCN(CC)CCN1CCc2[nH]c(/C=C3\C(=O)Nc4ncnc(Nc5ccc(F)c(Cl)c5)c43)c(C)c2C1=O [Example 12, 4-(3-Chlor O-4-fluoro-phenylamino)-5-[5-(2-diethylamino-ethyl)-3-methyl-4-oxo-4,5,6,7-tetrahydro-1H-pyrrolo[3,2-c]pyridine-2-ylmethylene]-5,7-dihydro-pyrrolo[2,3-d]pyrimidin-6-one]
14 | 310 nM | 830 nM | Cc1c(/C=C2\C(=O)Nc3ncnc(Nc4ccc(F)c(Cl)c4)c32)[nH]c2c1C(=O)N(CCN1CCOCC1)CC2 [Example 24, 4-(3-Chloro-4-fluoro-phenylamino)-5-[3-methyl-5-(2-morpholin-4-yl-ethyl)-4-oxo-4,5,6,7-tetrahydro-1H-pyrrolo[3,2-c]pyridine-2-ylmethylenene]-5,7-dihydro-pyrrolo[2,3-d]pyrimidin-6-one]
